Laboratory results taken from ChEMBL document CHEMBL1201862, “PubChem BioAssay data set” (2004).
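Assay format: 96-well plates, 48-hour exposure. Abbreviation: GI50, concentration required for 50% inhibition of growth.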 The source made the active and inactive calls. Cut-off read from the data, not from the text of the source: active = GI50 up to about 1.1 µM and inactive = higher.

Tests used:
Assay in all cases: NCI tumour cell line growth inhibition, 48 h
K562 = system: K562
SN12C = system: SN12C
OVCAR-8 = system: OVCAR-8
MCF7 = system: MCF7
MDA-N = system: MDA-N
TK-10 = system: TK-10
M14 = system: M14
786-0 = system: 786-0
RPMI-8226 = system: RPMI-8226
HOP-62 = system: HOP-62
NCI-H23 = system: NCI-H23
U-251 = system: U-251
BT-549 = system: BT-549
MDA-MB-435 = system: MDA-MB-435
NCI-H460 = system: NCI-H460
LOX IMVI = system: LOX IMVI
SNB-75 = system: SNB-75
UO-31 = system: UO-31
SK-MEL-2 = system: SK-MEL-2
HCT-116 = system: HCT-116
MDA-MB-231 = system: MDA-MB-231
Hs-578T = system: Hs-578T
IGROV-1 = system: IGROV-1
A549 = system: A549
HOP-92 = system: HOP-92
HCT-15 = system: HCT-15
RXF 393 = system: RXF 393
NCI-H522 = system: NCI-H522
DU-145 = system: DU-145
HL-60 = system: HL-60
T47D = system: T47D
EKVX = system: EKVX
CCRF-CEM = system: CCRF-CEM
SF-295 = system: SF-295
ACHN = system: ACHN
NCI-H226 = system: NCI-H226
SK-OV-3 = system: SK-OV-3
OVCAR-4 = system: OVCAR-4
SW-620 = system: SW-620
OVCAR-3 = system: OVCAR-3
UACC-257 = system: UACC-257
OVCAR-5 = system: OVCAR-5
SK-MEL-28 = system: SK-MEL-28
NCI/ADR-RES = system: NCI/ADR-RES
PC-3 = system: PC-3
HCC 2998 = system: HCC 2998
COLO 205 = system: COLO 205
SR = system: SR
A498 = system: A498
UACC-62 = system: UACC-62
SF-268 = system: SF-268
CAKI-1 = system: CAKI-1
SNB-19 = system: SNB-19
SK-MEL-5 = system: SK-MEL-5
HT-29 = system: HT-29
KM12 = system: KM12
MOLT-4 = system: MOLT-4
Malme-3M = system: Malme-3M
SF-539 = system: SF-539

CC1=NN(c2ccccc2)C2(C1)C(Cl)C(=O)N2c1nc2ccccc2s1 (stereo unspecified)
GI50 (K562): 33.6 µM (inactive)
GI50 (SN12C): 23.5 µM (inactive)
GI50 (OVCAR-8): 36.1 µM (inactive)
GI50 (MCF7): 43.9 µM (inactive)
GI50 (MDA-N): 35.6 µM (inactive)
GI50 (TK-10): > 100 µM (inactive)
GI50 (M14): 33.2 µM (inactive)
GI50 (786-0): 31.9 µM (inactive)
GI50 (RPMI-8226): 18.1 µM (inactive)
GI50 (HOP-62): 25.2 µM (inactive)
GI50 (NCI-H23): 24.2 µM (inactive)
GI50 (U-251): 26 µM (inactive)
GI50 (BT-549): 34.1 µM (inactive)
GI50 (MDA-MB-435): 40.6 µM (inactive)
GI50 (NCI-H460): 31 µM (inactive)
GI50 (LOX IMVI): 13.5 µM (inactive)
GI50 (SNB-75): 80.5 µM (inactive)
GI50 (UO-31): 26.6 µM (inactive)
GI50 (SK-MEL-2): 23.8 µM (inactive)
GI50 (HCT-116): 21.5 µM (inactive)
GI50 (MDA-MB-231): 28.8 µM (inactive)
GI50 (Hs-578T): 50.5 µM (inactive)
GI50 (IGROV-1): 16.6 µM (inactive)
GI50 (A549): 35.2 µM (inactive)
GI50 (HOP-92): 73.6 µM (inactive)
GI50 (HCT-15): 29.9 µM
GI50 (RXF 393): 23.8 µM (inactive)
GI50 (NCI-H522): 21.6 µM (inactive)
GI50 (DU-145): 36.2 µM (inactive)
GI50 (HL-60): 21.1 µM (inactive)
GI50 (T47D): 31.5 µM (inactive)
GI50 (EKVX): 30.6 µM (inactive)
GI50 (CCRF-CEM): 14.9 µM (inactive)
GI50 (SF-295): 28.8 µM (inactive)
GI50 (ACHN): 46.9 µM (inactive)
GI50 (NCI-H226): 15.1 µM (inactive)
GI50 (SK-OV-3): 32.1 µM (inactive)
GI50 (OVCAR-4): 85.1 µM (inactive)
GI50 (SW-620): 29.9 µM (inactive)
GI50 (OVCAR-3): 15.8 µM (inactive)
GI50 (UACC-257): 80.2 µM (inactive)
GI50 (OVCAR-5): 41.7 µM (inactive)
GI50 (SK-MEL-28): 36.6 µM (inactive)
GI50 (NCI/ADR-RES): 23.9 µM (inactive)
GI50 (PC-3): 37.1 µM (inactive)
GI50 (HCC 2998): 60.4 µM (inactive)
GI50 (COLO 205): 27.3 µM (inactive)
GI50 (SR): 22.9 µM (inactive)
GI50 (A498): 53 µM (inactive)
GI50 (UACC-62): 34.4 µM (inactive)
GI50 (SF-268): 29.9 µM (inactive)
GI50 (CAKI-1): 66.7 µM (inactive)
GI50 (SNB-19): 43 µM (inactive)
GI50 (SK-MEL-5): 20.8 µM (inactive)
GI50 (HT-29): 34.9 µM (inactive)
GI50 (KM12): 49.5 µM (inactive)
GI50 (MOLT-4): 20.7 µM (inactive)
GI50 (Malme-3M): 42.2 µM (inactive)

C=C1NC(=O)C(CC(C(=O)C(=O)Nc2c(C)cccc2C(C)(C)C)C(=O)c2ccc3ccccc3c2)C(=O)N1 (stereo unspecified)
GI50 (K562): > 100 µM (inactive)
GI50 (SN12C): > 100 µM (inactive)
GI50 (OVCAR-8): > 100 µM (inactive)
GI50 (MCF7): > 100 µM (inactive)
GI50 (MDA-N): > 100 µM (inactive)
GI50 (M14): > 100 µM (inactive)
GI50 (786-0): > 100 µM (inactive)
GI50 (RPMI-8226): > 100 µM (inactive)
GI50 (NCI-H23): > 100 µM (inactive)
GI50 (U-251): > 100 µM (inactive)
GI50 (BT-549): > 100 µM (inactive)
GI50 (MDA-MB-435): > 100 µM (inactive)
GI50 (NCI-H460): > 100 µM (inactive)
GI50 (LOX IMVI): > 100 µM (inactive)
GI50 (SNB-75): > 100 µM (inactive)
GI50 (UO-31): > 100 µM (inactive)
GI50 (SK-MEL-2): > 100 µM (inactive)
GI50 (HCT-116): > 100 µM (inactive)
GI50 (MDA-MB-231): > 100 µM (inactive)
GI50 (Hs-578T): > 100 µM (inactive)
GI50 (A549): > 100 µM (inactive)
GI50 (HOP-92): > 100 µM (inactive)
GI50 (HCT-15): > 100 µM
GI50 (RXF 393): > 100 µM (inactive)
GI50 (DU-145): > 100 µM (inactive)
GI50 (HL-60): > 100 µM (inactive)
GI50 (T47D): > 100 µM (inactive)
GI50 (CCRF-CEM): > 100 µM (inactive)
GI50 (SF-295): > 100 µM (inactive)
GI50 (ACHN): > 100 µM (inactive)
GI50 (NCI-H226): > 100 µM (inactive)
GI50 (SK-OV-3): > 100 µM (inactive)
GI50 (OVCAR-4): > 100 µM (inactive)
GI50 (SW-620): > 100 µM (inactive)
GI50 (SF-539): > 100 µM (inactive)
GI50 (OVCAR-3): > 100 µM (inactive)
GI50 (UACC-257): > 100 µM (inactive)
GI50 (OVCAR-5): > 100 µM (inactive)
GI50 (SK-MEL-28): > 100 µM (inactive)
GI50 (NCI/ADR-RES): > 100 µM (inactive)
GI50 (PC-3): > 100 µM (inactive)
GI50 (HCC 2998): > 100 µM (inactive)
GI50 (COLO 205): > 100 µM (inactive)
GI50 (SR): > 100 µM (inactive)
GI50 (A498): > 100 µM (inactive)
GI50 (UACC-62): > 100 µM (inactive)
GI50 (SF-268): > 100 µM (inactive)
GI50 (CAKI-1): > 100 µM (inactive)
GI50 (SNB-19): > 100 µM (inactive)
GI50 (SK-MEL-5): > 100 µM (inactive)
GI50 (HT-29): > 100 µM (inactive)
GI50 (KM12): > 100 µM (inactive)
GI50 (MOLT-4): > 100 µM (inactive)
